Data reported in paper PMC3243762 (Clinical cancer research : an official journal of the …, 2011).
“And” between values parts separate entries of the source, which are not always exact repeats. Identical values can stand only once. Like-named read-outs stand apart in the source and are kept apart here.

Columns and labels:
[1] = test system: PSMA+ PC3 PIP and PSMA− PC3 flu xenografts; settings: for Biodistribution, Bladder (empty) / Biodistribution, Blood / Biodistribution, Bone / Biodistribution, Heart / Biodistribution, Kidney / Biodistribution, Liver / Biodistribution, Lung / Biodistribution, Muscle / Biodistribution, PSMA+ PIP tumor / Biodistribution, PSMA− flu tumor / Biodistribution, Pancreas / Biodistribution, Spleen / Biodistribution, Stomach / Biodistribution, lrg. Intest / Biodistribution, sm. Intest: iv, n = 4
[2] = Human radiation dosimetry estimates
[3] = human source organ, from mouse data

O=C(O)CCC(NC(=O)NC(CCCCNC(=O)c1ccc([18F])nc1)C(=O)O)C(=O)O (centres unmarked) [[^18F]DCFPyL, 2-(3-{1-Carboxy-5-[(6-[^18F]fluoro-pyridine-3-carbonyl)-amino]-pentyl}-ureido)-pentanedioic acid]
Biodistribution, Bladder (empty) ([1]; 30 min pi): 18.6± 18.1 % ID/g
Biodistribution, Blood ([1]; 30 min pi): 1.53±0.19 % ID/g
Biodistribution, Bone ([1]; 30 min pi): 0.82 ±0.16 % ID/g
Biodistribution, Heart ([1]; 30 min pi): 0.68 ±0.07 % ID/g
Biodistribution, Kidney ([1]; 30 min pi): 74.1 ±6.6 % ID/g
Biodistribution, Liver ([1]; 30 min pi): 3.88 ±0.74 % ID/g
Biodistribution, Lung ([1]; 30 min pi): 1.91 ±0.47 % ID/g
Biodistribution, Muscle ([1]; 30 min pi): 0.39 ±0.05 % ID/g
Biodistribution, PSMA+ PIP tumor ([1]; 30 min pi): 46.7 ±5.8 % ID/g
Biodistribution, PSMA− flu tumor ([1]; 30 min pi): 1.17 ±0.41 % ID/g
Biodistribution, Pancreas ([1]; 30 min pi): 1.02 ±0.53 % ID/g
Biodistribution, Spleen ([1]; 30 min pi): 7.59 ±3.56 % ID/g
Biodistribution, Stomach ([1]; 30 min pi): 1.50±1.12 % ID/g
Biodistribution, lrg. Intest ([1]; 30 min pi): 0.73 ±0.04 % ID/g
Biodistribution, sm. Intest ([1]; 30 min pi): 0.79 ±0.11 % ID/g
Biodistribution, Bladder (empty) ([1]; 60 min pi): 9.88 ±4.92 % ID/g
Biodistribution, Blood ([1]; 60 min pi): 0.24 ±0.05 % ID/g
Biodistribution, Bone ([1]; 60 min pi): 0.42 ±0.15 % ID/g
Biodistribution, Heart ([1]; 60 min pi): 0.20 ±0.11 % ID/g
Biodistribution, Kidney ([1]; 60 min pi): 42.3 ±19.0 % ID/g
Biodistribution, Liver ([1]; 60 min pi): 2.87 ±0.92 % ID/g
Biodistribution, Lung ([1]; 60 min pi): 0.55 ±0.17 % ID/g
Biodistribution, Muscle ([1]; 60 min pi): 0.61 ±0.92 % ID/g
Biodistribution, PSMA+ PIP tumor ([1]; 60 min pi): 44.2 ±9.7 % ID/g
Biodistribution, PSMA− flu tumor ([1]; 60 min pi): 0.36 ±0.14 % ID/g
Biodistribution, Pancreas ([1]; 60 min pi): 0.26 ±0.13 % ID/g
Biodistribution, Spleen ([1]; 60 min pi): 2.70 ±1.28 % ID/g
Biodistribution, Stomach ([1]; 60 min pi): 0.35 ±0.34 % ID/g
Biodistribution, lrg. Intest ([1]; 60 min pi): 0.40 ±0.17 % ID/g
Biodistribution, sm. Intest ([1]; 60 min pi): 0.31 ±0.12 % ID/g
Biodistribution, Bladder (empty) ([1]; 120 min pi): 6.44 ±4.42 % ID/g
Biodistribution, Blood ([1]; 120 min pi): 0.43 ±0.37 % ID/g
Biodistribution, Bone ([1]; 120 min pi): 0.33 ±0.08 % ID/g
Biodistribution, Heart ([1]; 120 min pi): 0.06 ±0.01 % ID/g
Biodistribution, Kidney ([1]; 120 min pi): 15.7 ±3.3 % ID/g
Biodistribution, Liver ([1]; 120 min pi): 2.1 % ID/g
Biodistribution, Lung ([1]; 120 min pi): 0.18 ±0.02 % ID/g
Biodistribution, Muscle ([1]; 120 min pi): 0.04 ±0.00 % ID/g
Biodistribution, PSMA+ PIP tumor ([1]; 120 min pi): 39.4 ±5.4 % ID/g
Biodistribution, PSMA− flu tumor ([1]; 120 min pi): 0.11 ±0.02 % ID/g
Biodistribution, Pancreas ([1]; 120 min pi): 0.08 ±0.00 % ID/g
Biodistribution, Spleen ([1]; 120 min pi): 0.69 ±0.11 % ID/g
Biodistribution, Stomach ([1]; 120 min pi): 0.08 ±0.03 % ID/g
Biodistribution, lrg. Intest ([1]; 120 min pi): 0.12 ±0.05 % ID/g
Biodistribution, sm. Intest ([1]; 120 min pi): 0.11 ±0.07 % ID/g
Biodistribution, Liver ([1]; 120 min pi, listed as [^18F]3): 2.14±0.11 % ID/g
Biodistribution, Bladder (empty) ([1]; 240 min pi): 1.54 ±1.79 % ID/g
Biodistribution, Blood ([1]; 240 min pi): 0.03 ±0.01 % ID/g
Biodistribution, Bone ([1]; 240 min pi): 0.43 ±0.06 % ID/g
Biodistribution, Heart ([1]; 240 min pi): 0.02 ±0.00 % ID/g
Biodistribution, Liver ([1]; 240 min pi): 1.80 ±0.39 % ID/g
Biodistribution, Lung ([1]; 240 min pi): 0.06 ±0.00 % ID/g
Biodistribution, Muscle ([1]; 240 min pi): 0.05 ±0.05 % ID/g
Biodistribution, PSMA+ PIP tumor ([1]; 240 min pi): 36.6 ±4.3 % ID/g
Biodistribution, PSMA− flu tumor ([1]; 240 min pi): 0.03 ±0.01 % ID/g
Biodistribution, Pancreas ([1]; 240 min pi): 0.03 ±0.01 % ID/g
Biodistribution, Spleen ([1]; 240 min pi): 0.23 ±0.09 % ID/g
Biodistribution, Stomach ([1]; 240 min pi): 0.02 ±0.00 % ID/g
Biodistribution, lrg. Intest ([1]; 240 min pi): 0.06 ±0.01 % ID/g
Biodistribution, sm. Intest ([1]; 240 min pi): 0.05 ±0.01 % ID/g
Biodistribution, Kidney ([1]; 240 min pi, listed as [^18F]3): 7.42 ±0.89 % ID/g
Bone uptake ([1]; at all time points): < 1 % ID/g
Non-target tissue uptake ([1]; at or after 1 h post-injection): minimal non-target tissue uptake
Decrease of PSMA+ PC3 PIP xenograft uptake ([1]; from 30 min pi over the ensuing 4 h): about 10%
Absorbed dose, Total body ([2]; estimated human): 5.71E-03 mGy/MBq
Effective dose ([2]; estimated human): 1.36E-02 mSv/MBq
Effective dose equivalent ([2]; estimated human): 1.80E-02 mSv/MBq
Absorbed dose, Adrenals ([2]; estimated human target organ): 6.46E-03 mGy/MBq
Absorbed dose, Brain ([2]; estimated human target organ): 4.84E-03 mGy/MBq
Absorbed dose, Breasts ([2]; estimated human target organ): 3.97E-03 mGy/MBq
Absorbed dose, Gallbladder wall ([2]; estimated human target organ): 6.48E-03 mGy/MBq
Absorbed dose, Heart wall ([2]; estimated human target organ): 3.26E-03 mGy/MBq
Absorbed dose, Kidneys ([2]; estimated human target organ): 0.05 mGy/MBq and 4.81E-02 mGy/MBq
Absorbed dose, Liver ([2]; estimated human target organ): 7.38E-03 mGy/MBq
Absorbed dose, Lower large intestine wall ([2]; estimated human target organ): 9.40E-03 mGy/MBq
Absorbed dose, Lungs ([2]; estimated human target organ): 3.01E-03 mGy/MBq
Absorbed dose, Muscle ([2]; estimated human target organ): 3.95E-03 mGy/MBq
Absorbed dose, Osteogenic cells ([2]; estimated human target organ): 7.59E-03 mGy/MBq
Absorbed dose, Ovaries ([2]; estimated human target organ): 9.06E-03 mGy/MBq
Absorbed dose, Pancreas ([2]; estimated human target organ): 4.38E-03 mGy/MBq
Absorbed dose, Red marrow ([2]; estimated human target organ): 5.35E-03 mGy/MBq
Absorbed dose, Skin ([2]; estimated human target organ): 3.84E-03 mGy/MBq
Absorbed dose, Small intestine ([2]; estimated human target organ): 7.53E-03 mGy/MBq
Absorbed dose, Spleen ([2]; estimated human target organ): 6.57E-03 mGy/MBq
Absorbed dose, Stomach wall ([2]; estimated human target organ): 5.27E-03 mGy/MBq
Absorbed dose, Testes ([2]; estimated human target organ): 7.06E-03 mGy/MBq
Absorbed dose, Thymus ([2]; estimated human target organ): 4.43E-03 mGy/MBq
Absorbed dose, Thyroid ([2]; estimated human target organ): 4.45E-03 mGy/MBq
Absorbed dose, Upper large intestine wall ([2]; estimated human target organ): 6.67E-03 mGy/MBq
Absorbed dose, Urinary bladder wall ([2]; estimated human target organ): 0.15 mGy/MBq and 1.51E-01 mGy/MBq
Absorbed dose, Uterus ([2]; estimated human target organ): 1.45E-02 mGy/MBq
Time-integrated activity coefficient, Urinary bladder contents ([2]; human source organ, dynamic voiding bladder model, one hour voiding interval): 3.09E-01 MBq-h/MBq
Time-integrated activity coefficient, Heart wall [2, 3]: 3.97E-04 MBq-h/MBq
Time-integrated activity coefficient, Kidneys [2, 3]: 7.47E-02 MBq-h/MBq
Time-integrated activity coefficient, Liver [2, 3]: 4.09E-02 MBq-h/MBq
Time-integrated activity coefficient, Lower large intestine [2, 3]: 4.23E-04 MBq-h/MBq
Time-integrated activity coefficient, Lungs [2, 3]: 3.52E-03 MBq-h/MBq
Time-integrated activity coefficient, Muscle [2, 3]: 4.50E-02 MBq-h/MBq
Time-integrated activity coefficient, Pancreas [2, 3]: 1.48E-04 MBq-h/MBq
Time-integrated activity coefficient, Small intestine [2, 3]: 1.30E-03 MBq-h/MBq
Time-integrated activity coefficient, Spleen [2, 3]: 2.98E-03 MBq-h/MBq
Time-integrated activity coefficient, Stomach [2, 3]: 3.36E-04 MBq-h/MBq
Time-integrated activity coefficient, Upper large intestine [2, 3]: 4.23E-04 MBq-h/MBq
Time-integrated activity coefficient, Remainder ([2]; human, remainder of body, from mouse data): 8.51E-01 MBq-h/MBq
